Measurements published in patent US6936283B2, “Composition for stimulation of specific metallo-enzymes” (priority 2003, dated 2005).

What was measured:
[1] = molecular target: liver alcohol dehydrogenase (LADH); conditions: inhibit the activity of LADH enzyme, ref [1]; given in words only; cited from earlier work
[2] = tested on: healthy individuals; test: Alcohol metabolism in test persons after vodka, alcohol level measured with CA 2000 Digital Alcohol Detector every 30 minutes; type: in vivo, human; conditions: from comparing the fructose-containing and fructose-free compositions
Method: The study presented in Table 2 and 3 included 10 individuals (6 males and 4 females, 24-57 years old).
In the first study (Table 2A) the test persons were given 8 oz. (ca.2.4 dl) of vodka mixed with 6 dl Sprite (The Coca Cola Company). The alcohol was consumed within one hour. 45 minutes after alcohol consumption each person drank 500 ml water. The alcohol level was then measured as described under.
One week later, the same test persons were given the same amount of vodka and Sprite. 45 minutes after alcohol consumption each test person drank 500 ml of the composition of the present invention. The alcohol level was then measured as described under.
Both part of the second study (Table 2 B) was performed in the same way as described for the study presented […], with the exception that the test persons were given a 500 ml solution containing 90 g fructose, 90 mg caffeine and 500 mg vitamin C instead of the composition of the present invention. The alcohol level was again measured as described below.
The alcohol level (measured in 0/00) was measured with a CA 2000 Digital Alcohol Detector once every 30 minutes in each experiment. Each value is an average of four parallel measurements.

Which Ki [1] does the source give for CC(=O)N[C@@H](CS)C(=O)O [acetylcysteine] here?
The Ki was “in the uM-mM area”.

For N[C@@H](CS)C(=O)O [cysteine], which Ki [1] is on record?
The Ki was “in the uM-mM area”.

Which “contribution to the acceleration of alcohol degradation” value [2] does the source give for O=C(CO)[C@@H](O)[C@H](O)[C@H](O)CO [fructose] here?
Its value is 20-25%.

For N[C@@H](CCC(=O)N[C@@H](CS)C(=O)NCC(=O)O)C(=O)O [glutathione], which Ki [1] is on record?
Its Ki is “in the uM-mM area”.

Which Ki [1] does the source give for CSCC[C@H](N)C(=O)O [methionine] here?
The Ki was “in the uM-mM area”.
